Measurements from PubChem BioAssay (NCI).
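Following 48 hours of exposure in 96-well plates, responses at five concentrations were used to interpolate endpoints linearly. At the GI50, growth is halved. TGI: total growth inhibition.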

Assays:
Experiment in all cases: growth of human tumour cells (NCI), 48 h
[1] = test system: SK-MEL-28 melanoma
[2] = test system: A498 renal
[3] = test system: T-47D breast
[4] = test system: IGROV1 ovarian
[5] = test system: SF-268 CNS
[6] = test system: U251 CNS
[7] = test system: MALME-3M melanoma
[8] = test system: A549 NSCLC
[9] = test system: NCI-H226 lung
[10] = test system: MCF7 breast

Structure (SMILES)	GI50 [1] [µM]	TGI [1] [µM]	GI50 [2] [µM]	TGI [2] [µM]	GI50 [3] [µM]	TGI [3] [µM]	GI50 [4] [µM]	TGI [4] [µM]	GI50 [5] [µM]	TGI [5] [µM]	GI50 [6] [µM]	TGI [6] [µM]	GI50 [7] [µM]	TGI [7] [µM]	GI50 [8] [µM]	TGI [8] [µM]	GI50 [9] [µM]	TGI [9] [µM]	GI50 [10] [µM]	TGI [10] [µM]
COc1ccc(C(=O)N2c3ccccc3Sc3ccccc32)c(F)c1	1.64	> 100	0.33	8.68	0.639	> 100	0.808	> 100	10.7	> 100	0.615	> 100	16.2	> 100	1.19	> 100	2.35	> 100	0.405	> 100
CC1(C)CCC(C)(C)c2cc(C(=O)Nc3ccc(C(=O)O)cc3)ccc21		> 90.8		> 100		> 79.4		63.7		> 87.4		> 100		> 100		> 75.1		> 65.5		> 100
O=C(CC(C(=O)c1cccs1)c1ccc2c(c1)OCO2)c1ccc(Br)cc1 (stereo not given)		> 100		> 100		> 100		> 100		> 100		> 100		> 100		> 100		> 100		> 100
COc1cc(/C=C2\CN(C)CC3=C2Nc2nc(SC)[nH]c(=O)c2C3c2cc(OC)c(OC)c(OC)c2)cc(OC)c1OC (stereo not given)	2.1	4.29	9.58	21.5	3.69	22.6	3.1	12.6	1.66	3.4	1.76	4.14	2.82	9.44	3.26	13.7	6.17	22.2	4.98	18.3
C#C[C@]1(O)CC[C@H]2[C@@H]3CC=C4c5nc(Nc6ccccn6)sc5CC[C@]4(C)[C@H]3CC[C@@]21C	0.279	1.01	0.26	1.19	1.81	5.98	2.27	10.9	1.85	6.87	0.541	2.13	0.677	2.32	1.94	11.1	1.51	3.91	0.968	3.73
CS(=O)(=O)c1ccc(Cl)c([N+](=O)[O-])c1	17.9	32	38.6	> 100	13.5	35.1	18	45.1	18.5	36.3	15.2	29	21	44.9	19.3	41.1	15	30.3	10.9	33.7
Cn1cc(C2=C(c3cn(C)c4ccc(N)cc34)C(=O)NC2=O)c2ccccc21	17.2	> 25	9.28	> 25	18.8	> 25	23.8	> 25	15.6	> 25	8.96	> 25	> 25	> 25	12.5	> 25	> 17.6	> 25	4.76	> 25
Cc1ccc(C(=O)Nc2ccc(CN3CCN(C)CC3)c(C(F)(F)F)c2)cc1C#Cc1cnc(N)c2ccc(F)cc12	0.41	0.918	0.327	0.961	0.77	3.68	0.0575	0.501	0.259	1.88	0.275	0.717	0.141	0.597	0.27	0.712	0.737	3.66	0.441	0.861
